These molecules were tested against human recombinant PAK1-KD protein (Homo sapiens, UniProt Q13153) (assay: PAK1-KD (Kinase Domain) IC50 Zlyte Assay (FRET peptide substrate phosphorylation)). Details: Z'-LYTE, Biological Example 1.
Chain of human recombinant PAK1-KD protein (Q13153 270-521 limits assumed): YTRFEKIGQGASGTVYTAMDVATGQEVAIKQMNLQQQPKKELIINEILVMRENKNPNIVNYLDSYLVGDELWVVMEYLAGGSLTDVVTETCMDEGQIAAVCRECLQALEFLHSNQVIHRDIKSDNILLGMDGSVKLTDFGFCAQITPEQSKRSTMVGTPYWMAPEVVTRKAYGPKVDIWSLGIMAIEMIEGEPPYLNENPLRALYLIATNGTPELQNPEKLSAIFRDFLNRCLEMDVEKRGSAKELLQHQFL
Description: PAK1-KD (Kinase Domain) IC50 Zlyte Assay Protocol
Activity of human recombinant PAK1-KD protein may be assessed in vitro by assay of the phosphorylation of a FRET peptide substrate. Catalytically active human recombinant PAK1-KD protein is obtained by purification from Tini cells infected with a human PAK1-KD recombinant baculovirus expression vector.
The activity/inhibition of PAK1-KD was estimated by measuring the phosphorylation of a FRET peptide substrate (Ser/Thr19) labeled with Coumarin and Fluorescein using Z′-LYTE™ assay (Invitrogen). The peptide substrate is a consensus sequence ([sequence]) based on various PAK substrates reported in the scientific literature. […] Incubations were carried out at 22° C. in black polypropylene 384-well plates (Corning Costar).

Row | Compound | Ki [nM]
1 | CNc1ncc2cc(-c3ccc(-c4cccc(C)n4)cc3C)c(=O)n(CC(=O)N3CCNCC3)c2n1 [Example I-95, 2-(Methylamino)-6-[2-methyl-4-(6-methyl-2-pyridyl)phenyl]-8-(2-oxo-2-piperazin-1-yl-ethyl)pyrido[2,3-d]pyrimidin-7-one] | 27.3
2 | CNc1ncc2cc(-c3ccc(-c4cccc(C)n4)cc3Cl)c(=O)n(CC(=O)N3CCNCC3)c2n1 [Example I-107, 6-[2-Chloro-4-(6-methyl-2-pyridyl)phenyl]-2-(methylamino)-8-(2-oxo-2-piperazin-1-yl-ethyl)pyrido[2,3-d]pyrimidin-7-one] | 14.3
3 | CCNc1ncc2cc(-c3ccc(-c4cncc(C)n4)cc3Cl)c(=O)n(CC(O)CN)c2n1 (stereo not shown) [Example I-24, 8-(3-amino-2-hydroxy-propyl)-6-[2-chloro-4-(6-methylpyrazin-2-yl)phenyl]-2-(ethylamino)pyrido[2,3-d]pyrimidin-7-one] | 27.3
4 | CNc1ncc2cc(-c3ccc(-c4cccc(C)n4)cc3C)c(=O)n(CCC3CNCCO3)c2n1 (single isomer, unassigned) [Example I-104, 6-(2-Methyl-4-(6-methylpyridin-2-yl)phenyl)-2-(methylamino)-8-(2-(morpholin-2-yl)ethyl)pyrido[2,3-d]pyrimidin-7(8H)-one] | 2.3
5 | CNc1ncc2cc(-c3ccc(-c4csc(C)n4)cc3Cl)c(=O)n(C[C@H]3OC[C@H](N)CO3)c2n1 [Example I-190, 8-[(5-amino-1,3-dioxan-2-yl)methyl]-6-[2-chloro-4-(2-methylthiazol-4-yl)phenyl]-2-(methylamino)pyrido[2,3-d]pyrimidin-7-one] | 15.2
6 | Cc1cccc(-c2ccc(-c3cc4cnc(NC5COC5)nc4n(CCC4CNCCO4)c3=O)c(C)c2)n1 (single isomer, unassigned) [Example I-113, 6-(2-Methyl-4-(6-methylpyridin-2-yl)phenyl)-8-(2-(morpholin-2-yl)ethyl)-2-(oxetan-3-ylamino)pyrido[2,3-d]pyrimidin-7(8H)-one] | 1.7
7 | CNc1ncc2cc(-c3ccc(-c4csc(C5CC5)n4)cc3Cl)c(=O)n(C[C@@H]3CNCCO3)c2n1 [Example I-184, 6-[2-chloro-4-(2-cyclopropylthiazol-4-yl)phenyl]-2-(methylamino)-8-[[(2S)-morpholin-2-yl]methyl]pyrido[2,3-d]pyrimidin-7-one] | 43.1
8 | CNc1ncc2cc(-c3ccc(-c4csc(C)n4)cc3Cl)c(=O)n(C[C@H]3CNCCO3)c2n1 [Example I-182, 6-[2-chloro-4-(2-methylthiazol-4-yl)phenyl]-2-(methylamino)-8-[[(2R)-morpholin-2-yl]methyl]pyrido[2,3-d]pyrimidin-7-one] | 44.7
9 | CCNc1ncc2cc(-c3ccc(-c4cncc(C)n4)cc3Cl)c(=O)n(C3COC4(CCNCC4)C3)c2n1 (stereo not shown) [Example I-59, 6-(2-Chloro-4-(6-methylpyrazin-2-yl)phenyl)-2-(ethylamino)-8-(1-oxa-8-azaspiro[4.5]decan-3-yl)pyrido[2,3-d]pyrimidin-7(8H)-one] | 24.4
10 | CNc1ncc2cc(-c3ccc(-c4cccc(C)n4)cc3Cl)c(=O)n(CC[C@H]3OC[C@@H](N)CO3)c2n1 [Example I-134, 8-[2-(5-amino-1,3-dioxan-2-yl)ethyl]-6-[2-chloro-4-(6-methyl-2-pyridyl)phenyl]-2-(methylamino)pyrido[2,3-d]pyrimidin-7-one] | 3.45
11 | CNc1ncc2cc(-c3ccc(-c4cncc(C)n4)cc3Cl)c(=O)n(CCOC3CNC3)c2n1 [Example I-46, 8-[2-(azetidin-3-yloxy)ethyl]-6-[2-chloro-4-(6-methylpyrazin-2-yl)phenyl]-2-(methylamino)pyrido[2,3-d]pyrimidin-7-one] | 13.9
12 | CNc1ncc2cc(-c3ccc(-c4cccc(C)n4)cc3Cl)c(=O)n(CCC3CNCCS3(=O)=O)c2n1 (stereo not shown) [Example I-202, 6-[2-chloro-4-(6-methyl-2-pyridyl)phenyl]-8-[2-(1,1-dioxo-1 4-thiazinan-2-yl)ethyl]-2-(methylamino)pyrido[2,3-d]pyrimidin-7-one] | 7.1

Now from value to molecule:

Row | Ki [nM] | Compound
13 | 103 | CCNc1ncc2cc(-c3ccc(-c4cncc(C)n4)cc3Cl)c(=O)n(CCC(N)=O)c2n1 [Example I-69, 3-[6-[2-chloro-4-(6-methylpyrazin-2-yl)phenyl]-2-(ethylamino)-7-oxo-pyrido[2,3-d]pyrimidin-8-yl]propanamide]
14 | 15.9 | Cc1cccc(-c2ccc(-c3cc4cnc(NC5COC5)nc4n(CC(=O)N4CCNCC4)c3=O)c(Cl)c2)n1 [Example I-94, 6-[2-Chloro-4-(6-methyl-2-pyridyl)phenyl]-2-(oxetan-3-ylamino)-8-(2-oxo-2-piperazin-1-yl-ethyl)pyrido[2,3-d]pyrimidin-7-one]
15 | 0.5 | Cc1cccc(-c2ccc(-c3cc4cnc(NC5COC5)nc4n(C[C@H]4CC[C@H](N)CC4)c3=O)c(Cl)c2)n1 [Example I-33, 8-(((1r,4r)-4-aminocyclohexyl)methyl)-6-(2-chloro-4-(6-methylpyridin-2-yl)phenyl)-2-(oxetan-3-ylamino)pyrido[2,3-d]pyrimidin-7(8H)-one]
16 | 23.2 | CNc1ncc2cc(-c3ccc(-c4cncc(C)n4)cc3Cl)c(=O)n(CCCCN)c2n1 [Compound I-42, 8-(4-aminobutyl)-6-[2-chloro-4-(6-methylpyrazin-2-yl)phenyl]-2-(methylamino)pyrido[2,3-d]pyrimidin-7-one]
17 | 1.2 | CCc1cc(-c2cccc(C)n2)ccc1-c1cc2cnc(NC3COC3)nc2n(CC[C@H]2OC[C@H](N)CO2)c1=O [Example I-198, 8-[2-(5-Amino-1,3-dioxan-2-yl)ethyl]-6-[2-ethyl-4-(6-methyl-2-pyridyl)phenyl]-2-(oxetan-3-ylamino)pyrido[2,3-d]pyrimidin-7-one]
18 | 21.1 | Cc1cccc(-c2ccc(-c3cc4cnc(N)nc4n(CCCN)c3=O)c(C)c2)n1 [Example I-72, 2-Amino-8-(3-aminopropyl)-6-[2-methyl-4-(6-methyl-2-pyridyl)phenyl]pyrido[2,3-d]pyrimidin-7-one]
19 | 4.2 | Cc1cccc(-c2ccc(-c3cc4cnc(NC(C)C)nc4n(CC(=O)N4CCNCC4)c3=O)c(Cl)c2)n1 [Example I-35, 6-[2-Chloro-4-(6-methyl-2-pyridyl)phenyl]-2-(isopropylamino)-8-(2-oxo-2-piperazin-1-yl-ethyl)pyrido[2,3-d]pyrimidin-7-one]
20 | 78.2 | CNc1ncc2cc(-c3ccc(-c4cncc(C)n4)cc3Cl)c(=O)n(CCN3CCOCC3)c2n1 [Example I-158, 6-[2-chloro-4-(6-methylpyrazin-2-yl)phenyl]-2-(methylamino)-8-(2-morpholinoethyl)pyrido[2,3-d]pyrimidin-7-one]
21 | 2.8 | CNc1ncc2cc(-c3ccc(-c4cccc(C)n4)cc3Cl)c(=O)n(CCC3(C#N)CCNC3)c2n1 (stereo not shown) [Example I-199, 3-[2-[6-[2-chloro-4-(6-methyl-2-pyridyl)phenyl]-2-(methylamino)-7-oxo-pyrido[2,3-d]pyrimidin-8-yl]ethyl]pyrrolidine-3-carbonitrile]
22 | 7.5 | CNc1ncc2cc(-c3ccc(-c4cncc(C)n4)cc3Cl)c(=O)n(CCC3OCC(N)CO3)c2n1 (stereo not shown) [Example I-37, 8-[2-(5-amino-1,3-dioxan-2-yl)ethyl]-6-[2-chloro-4-(6-methylpyrazin-2-yl)phenyl]-2-(methylamino)pyrido[2,3-d]pyrimidin-7-one]
